Measurements from PubChem BioAssay (NCI).
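Five concentrations, 48 hours, 96-well plates. Here, GI50 denotes the concentration required for 50% inhibition of growth. The concentration for full growth arrest is given as TGI.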

Assays:
Experiment in all cases: DTP human tumour cell line panel, 48 h
K-562 leukemia = system: K-562 leukemia
SW-620 colon = system: SW-620 colon
HOP-62 NSCLC = system: HOP-62 NSCLC
A549 NSCLC = system: A549 NSCLC
RXF 393 renal = system: RXF 393 renal
HCT-15 colon = system: HCT-15 colon
NCI/ADR-RES ovarian = system: NCI/ADR-RES ovarian
SF-539 CNS = system: SF-539 CNS
SR leukemia = system: SR leukemia
RPMI-8226 leukemia = system: RPMI-8226 leukemia
M14 melanoma = system: M14 melanoma
786-0 renal = system: 786-0 renal
T-47D breast = system: T-47D breast
ACHN renal = system: ACHN renal
BT-549 breast = system: BT-549 breast
HL-60(TB) leukemia = system: HL-60(TB) leukemia
PC-3 prostate = system: PC-3 prostate
OVCAR-4 ovarian = system: OVCAR-4 ovarian
HS 578T breast = system: HS 578T breast
HCC-2998 colon = system: HCC-2998 colon
HOP-92 NSCLC = system: HOP-92 NSCLC
KM12 colon = system: KM12 colon
EKVX NSCLC = system: EKVX NSCLC
UACC-257 melanoma = system: UACC-257 melanoma
MOLT-4 leukemia = system: MOLT-4 leukemia
DU-145 prostate = system: DU-145 prostate
OVCAR-3 ovarian = system: OVCAR-3 ovarian
CCRF-CEM leukemia = system: CCRF-CEM leukemia
SK-OV-3 ovarian = system: SK-OV-3 ovarian
OVCAR-8 ovarian = system: OVCAR-8 ovarian
COLO 205 colon = system: COLO 205 colon
NCI-H522 lung = system: NCI-H522 lung
SF-295 CNS = system: SF-295 CNS
SK-MEL-28 melanoma = system: SK-MEL-28 melanoma
MDA-MB-231 breast = system: MDA-MB-231 breast
MDA-MB-435 = system: MDA-MB-435
SNB-19 CNS = system: SNB-19 CNS
SF-268 CNS = system: SF-268 CNS
MALME-3M melanoma = system: MALME-3M melanoma
SK-MEL-5 melanoma = system: SK-MEL-5 melanoma
LOX IMVI melanoma = system: LOX IMVI melanoma
UO-31 renal = system: UO-31 renal
UACC-62 melanoma = system: UACC-62 melanoma
NCI-H23 lung = system: NCI-H23 lung
SN12C renal = system: SN12C renal
NCI-H226 lung = system: NCI-H226 lung
SNB-75 CNS = system: SNB-75 CNS
U251 CNS = system: U251 CNS
SK-MEL-2 melanoma = system: SK-MEL-2 melanoma
HT29 colon = system: HT29 colon
NCI-H460 lung = system: NCI-H460 lung
TK-10 renal = system: TK-10 renal
IGROV1 ovarian = system: IGROV1 ovarian
OVCAR-5 ovarian = system: OVCAR-5 ovarian
A498 renal = system: A498 renal
MCF7 breast = system: MCF7 breast
CAKI-1 renal = system: CAKI-1 renal
HCT-116 colon = system: HCT-116 colon

## O=C(C[n+]1cccc2cc(Cl)ccc21)c1ccc2c(c1)CCCC2
K-562 leukemia
  GI50: 1320 nM
  TGI: 10.3 µM
SW-620 colon
  GI50: 2030 nM
  TGI: 4.97 µM
HOP-62 NSCLC
  GI50: 1650 nM
  TGI: 3.85 µM
A549 NSCLC
  GI50: 3.7 µM
  TGI: 13.5 µM
RXF 393 renal
  GI50: 1690 nM
  TGI: 3.81 µM
HCT-15 colon
  GI50: 11.8 µM
  TGI: 31.7 µM
NCI/ADR-RES ovarian
  GI50: 19.9 µM
  TGI: 67.3 µM
SF-539 CNS
  GI50: 1400 nM
  TGI: 2.85 µM
SR leukemia
  GI50: 758 nM
  TGI: 6.18 µM
RPMI-8226 leukemia
  GI50: 910 nM
  TGI: 4.09 µM
M14 melanoma
  GI50: 1480 nM
  TGI: 3200 nM
786-0 renal
  GI50: 2010 nM
  TGI: 5.25 µM
T-47D breast
  GI50: 1090 nM
  TGI: 2.71 µM
ACHN renal
  GI50: 4.91 µM
  TGI: 18.5 µM
BT-549 breast
  GI50: 1110 nM
  TGI: 2.97 µM
HL-60(TB) leukemia
  GI50: 882 nM
  TGI: 3.95 µM
PC-3 prostate
  GI50: 933 nM
  TGI: 3.61 µM
OVCAR-4 ovarian
  GI50: 982 nM
  TGI: 2.99 µM
HS 578T breast
  GI50: 2030 nM
  TGI: 5.43 µM
HCC-2998 colon
  GI50: 1600 nM
  TGI: 3.28 µM
HOP-92 NSCLC
  GI50: 1580 nM
  TGI: 3.22 µM
KM12 colon
  GI50: 1460 nM
  TGI: 3.36 µM
EKVX NSCLC
  GI50: 2460 nM
  TGI: 11.3 µM
UACC-257 melanoma
  GI50: 1500 nM
  TGI: 3.58 µM
MOLT-4 leukemia
  GI50: 1410 nM
  TGI: 4500 nM
DU-145 prostate
  GI50: 1460 nM
  TGI: 3.33 µM
OVCAR-3 ovarian
  GI50: 875 nM
  TGI: 2.26 µM
CCRF-CEM leukemia
  GI50: 1590 nM
  TGI: 8.74 µM
SK-OV-3 ovarian
  GI50: 1720 nM
  TGI: 6.94 µM
OVCAR-8 ovarian
  GI50: 2980 nM
  TGI: 11.2 µM
COLO 205 colon
  GI50: 1500 nM
  TGI: 3.01 µM
NCI-H522 lung
  GI50: 1510 nM
  TGI: 4.33 µM
SF-295 CNS
  GI50: 1770 nM
  TGI: 4.22 µM
SK-MEL-28 melanoma
  GI50: 1620 nM
  TGI: 3.19 µM
MDA-MB-231 breast
  GI50: 1500 nM
  TGI: 3.25 µM
MDA-MB-435
  GI50: 1610 nM
  TGI: 3.38 µM
SNB-19 CNS
  GI50: 1120 nM
  TGI: 2650 nM
SF-268 CNS
  GI50: 1440 nM
  TGI: 3.29 µM
MALME-3M melanoma
  GI50: 1200 nM
  TGI: 2.63 µM
SK-MEL-5 melanoma
  GI50: 1260 nM
  TGI: 2550 nM
LOX IMVI melanoma
  GI50: 831 nM
  TGI: 2.24 µM
UO-31 renal
  GI50: 5.71 µM
  TGI: 20.4 µM
UACC-62 melanoma
  GI50: 1540 nM
  TGI: 3.49 µM
NCI-H23 lung
  GI50: 1140 nM
  TGI: 4.44 µM
SN12C renal
  GI50: 1270 nM
  TGI: 3.04 µM
NCI-H226 lung
  GI50: 1480 nM
  TGI: 3.48 µM
SNB-75 CNS
  GI50: 1350 nM
  TGI: 3.2 µM
U251 CNS
  GI50: 595 nM
  TGI: 1.86 µM
SK-MEL-2 melanoma
  GI50: 1680 nM
  TGI: 3.41 µM
HT29 colon
  GI50: 1660 nM
  TGI: 3.44 µM
NCI-H460 lung
  GI50: 1860 nM
  TGI: 3.68 µM
TK-10 renal
  GI50: 2210 nM
  TGI: 4.65 µM
IGROV1 ovarian
  GI50: 1520 nM
  TGI: 4.08 µM
OVCAR-5 ovarian
  GI50: 1840 nM
  TGI: 4.54 µM
A498 renal
  GI50: 3.56 µM
  TGI: 13.3 µM

## COc1ccc2c(c1)n([O-])c1cc(C#N)ccc1[n+]2=O
MCF7 breast
  TGI: > 100 µM
K-562 leukemia
  TGI: 97.4 µM
SW-620 colon
  TGI: 56.3 µM
HOP-62 NSCLC
  TGI: 15.6 µM
A549 NSCLC
  TGI: 10.9 µM
RXF 393 renal
  TGI: > 100 µM
CAKI-1 renal
  TGI: 14.6 µM
HCT-15 colon
  TGI: 4.82 µM
NCI/ADR-RES ovarian
  TGI: 62.9 µM
SF-539 CNS
  TGI: 16.2 µM
SR leukemia
  TGI: 18.9 µM
HCT-116 colon
  TGI: 24 µM
M14 melanoma
  TGI: 1670 nM
786-0 renal
  TGI: 30.8 µM
T-47D breast
  TGI: 48.6 µM
ACHN renal
  TGI: 12.4 µM
BT-549 breast
  TGI: 51.6 µM
HL-60(TB) leukemia
  TGI: 71.6 µM
PC-3 prostate
  TGI: 21.7 µM
OVCAR-4 ovarian
  TGI: 91 µM
HS 578T breast
  TGI: 18.6 µM
HOP-92 NSCLC
  TGI: 28.6 µM
KM12 colon
  TGI: 12.5 µM
EKVX NSCLC
  TGI: 79.1 µM
UACC-257 melanoma
  TGI: 19.4 µM
MOLT-4 leukemia
  TGI: 1380 nM
DU-145 prostate
  TGI: 16.6 µM
OVCAR-3 ovarian
  TGI: 26.1 µM
SK-OV-3 ovarian
  TGI: 43.1 µM
OVCAR-8 ovarian
  TGI: > 100 µM
NCI-H522 lung
  TGI: 27.7 µM
SF-295 CNS
  TGI: 3.77 µM
SK-MEL-28 melanoma
  TGI: 40.2 µM
MDA-MB-231 breast
  TGI: 59.5 µM
MDA-MB-435
  TGI: 6.12 µM
SNB-19 CNS
  TGI: > 100000 nM
SF-268 CNS
  TGI: 81.3 µM
MALME-3M melanoma
  TGI: 8.06 µM
SK-MEL-5 melanoma
  TGI: 2600 nM
LOX IMVI melanoma
  TGI: 17.6 µM
UO-31 renal
  TGI: 23.1 µM
UACC-62 melanoma
  TGI: 11 µM
NCI-H23 lung
  TGI: 4.79 µM
SN12C renal
  TGI: 20.6 µM
NCI-H226 lung
  TGI: 21.7 µM
SNB-75 CNS
  TGI: 20.3 µM
U251 CNS
  TGI: 16.7 µM
SK-MEL-2 melanoma
  TGI: 19.2 µM
HT29 colon
  TGI: 10.1 µM
NCI-H460 lung
  TGI: > 100 µM
TK-10 renal
  TGI: 10.8 µM
IGROV1 ovarian
  TGI: 26.8 µM
OVCAR-5 ovarian
  TGI: 35.9 µM
